These are literature values, as cited in patent publication US20170231227A1, “ANTIFUNGAL-GRAFTED POLYOLEFIN” (priority 2016, published 2017).

Consider `C[C@@H]1C/C=C/C=C/C=C/C=C/[C@H](O[C@@H]2O[C@H](C)[C@@H](O)[C@H](N)[C@@H]2O)C[C@@H]2O[C@](O)(C[C@@H](O)C[C@H]3O[C@@H]3/C=C/C(=O)O1)C[C@H](O)[C@H]2C(=O)O` [Natamycin, natamycin], for which the solubility in ethanol (pure ethanol) is 40 ppm. Also, the solubility in water result (water) is “poor”.
